Experiments:
HeLa = experiment: MTS proliferation assay; format: cell-based, human; conditions: 72 h
Procedure, shortened: (§1)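 Compounds at final 10/3/1/0.3 μM (added in complete medium, ≤5% DMSO); 72 h, culture conditions; + MTS, 3 h; A492.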

Jurkat = experiment: MTS proliferation assay; format: cell-based, human; conditions: 72 h
Procedure, shortened: as §1

Jily = experiment: MTS proliferation assay; format: cell-based; conditions: 72 h
Procedure, shortened: as §1

MRC5 = experiment: MTS proliferation assay; format: cell-based; conditions: MRC5, 72 h
Procedure, shortened: as §1

[1] = Hoechst 33342 nuclear staining; format: cell-based; conditions: for Hoechst 33342 nuclear staining score, HeLa: HeLa cells; for Hoechst 33342 nuclear staining score, Jurkat: Jurkat cells; for Hoechst 33342 nuclear staining score, H460: H460 cells; for Hoechst 33342 nuclear staining score, Jily: Jily cells; for Hoechst 33342 nuclear staining score, MRC5: MRC5 cells;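 for all read-outs here: apoptotic nuclei scored 0 none 1 weak under 50% of cells 2 strong over 50% of cells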
Procedure, shortened: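 After a further 30 min incubation, plates were inspected on a standard inverted fluorescence microscope. The fraction of apoptotic nuclei and other apoptosis-specific morphology were scored as 0 for no activity, 1 for weak activity in less than 50% of the cells, and 2 for strong activity in more than 50% of the cells.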

Structure (SMILES) | IC50 (HeLa) [nM] | IC50 (Jurkat) [nM] | IC50 (Jily) [nM] | IC50 (MRC5) [nM] | Hoechst 33342 nuclear staining score, HeLa ([1]; conc 0.1) | Hoechst 33342 nuclear staining score, HeLa ([1]; conc 0.3) | Hoechst 33342 nuclear staining score, HeLa ([1]; conc 1) | Hoechst 33342 nuclear staining score, HeLa ([1]; conc 3) | Hoechst 33342 nuclear staining score, Jurkat ([1]; conc 0.1) | Hoechst 33342 nuclear staining score, Jurkat ([1]; conc 0.3) | Hoechst 33342 nuclear staining score, Jurkat ([1]; conc 1) | Hoechst 33342 nuclear staining score, Jurkat ([1]; conc 3) | Hoechst 33342 nuclear staining score, PBLs ([1]; conc 0.1) | Hoechst 33342 nuclear staining score, PBLs ([1]; conc 0.3) | Hoechst 33342 nuclear staining score, PBLs ([1]; conc 1) | Hoechst 33342 nuclear staining score, PBLs ([1]; conc 3) | Hoechst 33342 nuclear staining score, H460 ([1]; conc 0.1) | Hoechst 33342 nuclear staining score, H460 ([1]; conc 0.3) | Hoechst 33342 nuclear staining score, H460 ([1]; conc 1) | Hoechst 33342 nuclear staining score, H460 ([1]; conc 3) | other results
COc1cc(-c2cc(-c3ccc(S(N)(=O)=O)cc3)cn2S(=O)(=O)c2ccc(C)cc2)cc(OC)c1OC [Example 57] | < 1000 | < 200 | < 1000 | < 1000 | 0 | 0 | 0 | 2 (strong activity comprising more than 50% of the cells) | 0 | 0 | 1 (weak activity comprising less than 50% of the cells) | 2 (strong activity comprising more than 50% of the cells) | 0 | 0 | 0 | 0 |  |  |  |  | 
COc1cc(-c2cc(-c3cncc(C(=O)NC(C)CO)c3)cn2S(=O)(=O)c2ccc(C)cc2)cc(OC)c1OC.Cl (stereo not shown) [Example 63] | < 1000 | < 1000 | < 1000 | < 1000 | 0 | 0 | 0 | 2 (strong activity comprising more than 50% of the cells) | 0 | 0 | 2 (strong activity comprising more than 50% of the cells) | 2 (strong activity comprising more than 50% of the cells) | 0 | 0 | 0 | 0 | 0 | 0 | 0 | 0 | Hoechst 33342 nuclear staining score, Jily ([1]; conc 0.1): 0; Hoechst 33342 nuclear staining score, Jily ([1]; conc 0.3): 0; Hoechst 33342 nuclear staining score, Jily ([1]; conc 1): 0; Hoechst 33342 nuclear staining score, Jily ([1]; conc 3): 0; Hoechst 33342 nuclear staining score, MRC5 ([1]; conc 0.1): 0; Hoechst 33342 nuclear staining score, MRC5 ([1]; conc 0.3): 0; Hoechst 33342 nuclear staining score, MRC5 ([1]; conc 1): 0; Hoechst 33342 nuclear staining score, MRC5 ([1]; conc 3): 0
COc1ccc(S(=O)(=O)n2cc(CNc3ccc(N4CCOCC4)cc3)cc2-c2cc(OC)c(OC)c(OC)c2)cc1 [Example 94, 1-p-Methoxyphenylsulfonyl-4-p-morpholinophenylaminomethyl-2-(3,4,5-trimethoxyphenyl)-pyrrole] |  |  | < 200 |  | 0 | 2 (strong activity comprising more than 50% of the cells) | 2 (strong activity comprising more than 50% of the cells) | 2 (strong activity comprising more than 50% of the cells) | 0 | 2 (strong activity comprising more than 50% of the cells) | 2 (strong activity comprising more than 50% of the cells) | 2 (strong activity comprising more than 50% of the cells) | 0 | 0 | 0 | 0 | 0 | 2 (strong activity comprising more than 50% of the cells) | 2 (strong activity comprising more than 50% of the cells) | 2 (strong activity comprising more than 50% of the cells) | IC50 (HeLa; Homo sapiens): < 200 nM; IC50 (Jurkat; Homo sapiens): < 200 nM; IC50 (MRC5; Homo sapiens): < 200 nM; Hoechst 33342 nuclear staining score, Jily ([1]; conc 0.1): 0; Hoechst 33342 nuclear staining score, Jily ([1]; conc 0.3): 2 (strong activity comprising more than 50% of the cells); Hoechst 33342 nuclear staining score, Jily ([1]; conc 1): 2 (strong activity comprising more than 50% of the cells); Hoechst 33342 nuclear staining score, Jily ([1]; conc 3): 2 (strong activity comprising more than 50% of the cells); Hoechst 33342 nuclear staining score, MRC5 ([1]; conc 0.1): 0; Hoechst 33342 nuclear staining score, MRC5 ([1]; conc 0.3): 0; Hoechst 33342 nuclear staining score, MRC5 ([1]; conc 1): 0; Hoechst 33342 nuclear staining score, MRC5 ([1]; conc 3): 2 (strong activity comprising more than 50% of the cells)
COc1cc(-c2cc(-c3cccnc3)cn2S(=O)(=O)Cc2ccccc2)cc(OC)c1OC [Example 88] | > 1000 | > 1000 | > 1000 | > 1000 | 0 | 0 | 0 | 0 | 0 | 0 | 0 | 0 | 0 | 0 | 0 | 0 | 0 | 0 | 0 | 0 | Hoechst 33342 nuclear staining score, Jily ([1]; conc 0.1): 0; Hoechst 33342 nuclear staining score, Jily ([1]; conc 0.3): 0; Hoechst 33342 nuclear staining score, Jily ([1]; conc 1): 0; Hoechst 33342 nuclear staining score, Jily ([1]; conc 3): 0; Hoechst 33342 nuclear staining score, MRC5 ([1]; conc 0.1): 0; Hoechst 33342 nuclear staining score, MRC5 ([1]; conc 0.3): 0; Hoechst 33342 nuclear staining score, MRC5 ([1]; conc 1): 0; Hoechst 33342 nuclear staining score, MRC5 ([1]; conc 3): 0
COc1cc(-c2cc(-c3cccnc3)cn2S(=O)(=O)c2ccc(C(C)(C)C)cc2)cc(OC)c1OC [Example 83] | > 1000 | > 1000 | > 1000 | > 1000 | 0 | 0 | 0 | 0 | 0 | 0 | 0 | 0 | 0 | 0 | 0 | 0 | 0 | 0 | 0 | 0 | Hoechst 33342 nuclear staining score, Jily ([1]; conc 0.1): 0; Hoechst 33342 nuclear staining score, Jily ([1]; conc 0.3): 0; Hoechst 33342 nuclear staining score, Jily ([1]; conc 1): 0; Hoechst 33342 nuclear staining score, Jily ([1]; conc 3): 0; Hoechst 33342 nuclear staining score, MRC5 ([1]; conc 0.1): 0; Hoechst 33342 nuclear staining score, MRC5 ([1]; conc 0.3): 0; Hoechst 33342 nuclear staining score, MRC5 ([1]; conc 1): 0; Hoechst 33342 nuclear staining score, MRC5 ([1]; conc 3): 0
COc1cc(-c2cc(-c3cccnc3)cn2S(=O)(=O)/C=C/c2ccccc2)cc(OC)c1OC [Example 89] | > 1000 | > 1000 | > 1000 | > 1000 | 0 | 0 | 0 | 0 | 0 | 0 | 0 | 1 (weak activity comprising less than 50% of the cells) | 0 | 0 | 0 | 0 | 0 | 0 | 0 | 0 | Hoechst 33342 nuclear staining score, Jily ([1]; conc 0.1): 0; Hoechst 33342 nuclear staining score, Jily ([1]; conc 0.3): 0; Hoechst 33342 nuclear staining score, Jily ([1]; conc 1): 0; Hoechst 33342 nuclear staining score, Jily ([1]; conc 3): 1 (weak activity comprising less than 50% of the cells); Hoechst 33342 nuclear staining score, MRC5 ([1]; conc 0.1): 0; Hoechst 33342 nuclear staining score, MRC5 ([1]; conc 0.3): 0; Hoechst 33342 nuclear staining score, MRC5 ([1]; conc 1): 0; Hoechst 33342 nuclear staining score, MRC5 ([1]; conc 3): 0
COc1ccc(S(=O)(=O)n2cc(CNc3ccc(N4CCOCC4)cc3)cc2-c2ccccc2OC)cc1 [Example 97] | > 1000 | > 1000 | > 1000 | > 1000 | 0 | 0 | 0 | 0 | 0 | 0 | 0 | 0 | 0 | 0 | 0 | 0 | 0 | 0 | 0 | 0 | Hoechst 33342 nuclear staining score, Jily ([1]; conc 0.1): 0; Hoechst 33342 nuclear staining score, Jily ([1]; conc 0.3): 0; Hoechst 33342 nuclear staining score, Jily ([1]; conc 1): 0; Hoechst 33342 nuclear staining score, Jily ([1]; conc 3): 0; Hoechst 33342 nuclear staining score, MRC5 ([1]; conc 0.1): 0; Hoechst 33342 nuclear staining score, MRC5 ([1]; conc 0.3): 0; Hoechst 33342 nuclear staining score, MRC5 ([1]; conc 1): 0; Hoechst 33342 nuclear staining score, MRC5 ([1]; conc 3): 0

From US7612064B2, “Sulfopyrroles” (Takeda Pharmaceutical Company Limited, priority 2003, dated 2009)
